# Laboratory results published in patent US20220249401A1, “DIETARY SUPPLEMENT FORMULATED BASED ON ALL-TRANS FORM OF MENAQUINONE-7” (NUTRIOMICS LIMITED, priority 2021, published 2022).
# Tested on: MGP
# Test: MGP gene expression in chondrocyte cells treated with trans form of MK7
# Assay type: cell-based
# Conditions: Chondrocyte cells treated with 0.01% (w/w) trans form of MK7; mRNA encoding MGP, relative to control conditions
# Protocol: Example 2—The role of the trans form of MK7 in expression of MGP was measured as compared to control samples. Chondrocyte cells were treated with 0.01% (w/w) trans form of vitamin MK7 and results were reported as fold change in gene expression relative to control conditions.
# MGP expression was elevated by 21% in the presence of trans form of MK7 as compared to the control samples as can be concluded from FIG. 2. […] MGP gene expression found to actively be regulated in the presence of trans form of MK7.
smiles,measurement,value
"CC(C)=CCC/C(C)=C/CC/C(C)=C/CC/C(C)=C/CC/C(C)=C/CC/C(C)=C/CC/C(C)=C/CC1=C(C)C(=O)c2ccccc2C1=O [trans form of MK7, all-trans form of Menaquinone-7]",MGP expression elevated as compared to the control samples,21%
